The source of these data is patent US20250136607A1 (REGOR PHARMACEUTICALS, INC., priority 2021, published 2025).

In test [1] the test system is Citrullinated Histone H3 in dHL-60 cells (differentiated HL-60). The experiment in a line: dHL-60 Cit-H3 ELISA assay. The class given is cell-based, human. Particulars: Homo sapiens, read-out: Average IC50 Abs. The method, then: Cell culture: HL-60 cells were grown in IMDM+20% FBS+1% PS. The suspension cells were split into 1:5 with fresh media every 2-3 days to maintain cell density between 1×10^5 to 1×10^6 viable cells/mL. HL-60 cells differentiation: HL-60 cells were diluted to 1×10^5 cells/mL and differentiated into neutrophil-like cells with 100 mM DMF treatment for 72 hours in flask at 37° C., 5% CO2. dHL-60 Cells plating: • 1) HL-60 cells were collected, and the plate was centrifuged at 1000 rpm for 5 min. • 2) The HL-60 cells were diluted to 1.25×10^6 cells/mL and plated into a 96-well plate with 80 μL/well (i.e., 1×10^5/well). The plate was then incubated in the incubator (5% CO2, 37° C.) for 30 min to allow cells to adhere. Compound treatment: • 1) Preparation of compound serial dilution (source plate 500×, final DMSO concentration: 0.2%): briefly, compounds were dissolved in 100% DMSO to a concentration of 20 mM (the stock solution) and a 3-fold serial dilution with 8-point doses was performed. • 2) A 10× compound solution was pipetted up and down; and 10 μL/well of compounds were added into each well and incubated for 30 min. Stimulation with 25 μM A23187: • 1) A solution of A23187 (250 μM) in complete IMDM (IMDM+10% FBS+1% PS) containing 150 U/mL S7 Nuclease was prepared. The obtained solution was added 10 μL/well into each well and incubated for 3 h in the incubator (5% CO2, 37° C.). • 2) The dHL-60 cells treated with 10 μL/well complete IMDM without A23187 worked as negative control. Sample preparation: • 1) EDTA (0.5 M, 2 μL/well) were added to all the wells to stop the reaction. • 2) The plate was centrifuged at 1000 rpm for 5 min to collect supernatant. • 3) The supernatant was then diluted at least 1:2 before adding to the ELISA plate for citrullinated H3 analysis.
The standard was reconstituted with 2 mL of Assay buffer to 500 ng/mL. The reconstituted standard was relatively unstable at 4° C. and should be used within 3 hr after reconstitution.
• 1) 100 μL of the standards or diluted samples were added to the wells on the ELISA plate. • 2) The plate was covered with Cover Sheet and incubated for 2 h at room temperaturert on an orbital shaker.
On the day of the assay, the reagent was thawed at room temperaturert. For one plate, 1.2 mL of HRP Conjugate were diluted into 10.8 mL of assay buffer. A diluted HRP Conjugate was prepared shortly before use.
• 1) The wells were empties and rinsed four times with 1× wash buffer with 300 μL/well (Low speed). The plate was inverted between wash steps to empty the plate. After the last wash, the inverted plate was gently tapped on absorbent paper to remove the residual wash buffer. • 2) 100 μL of the HRP Conjugate working solution were added to each well of the plate. • 3) The plate was covered with cover sheet and incubated for 1 h at RT on an orbital shaker.
• 1) The wells were empties and rinsed four times with 1× wash buffer with 300 μL/well (low speed). The plate was inverted between wash steps to empty the plate. […] 100 uL of HRP STOP solution were added to each well of the plate.
• 1) Wipe the bottom of the plate with a clean tissue to remove fingerprints, dirt, etc. • 2) Read the plate at a wavelength of 450 nm.
The percent (%) inhibition at each concentration of compound was calculated based on and relative to the signal in the HPE and ZPE wells contained within each assay plate. The HPE wells worked as […], and the ZPE wells didn't contain any compound but rather DMSO (final concentration=0.1%) as […]. The concentrations and % inhibition values for tested compounds were plotted and the concentration of compound required for 50% inhibition (IC50) was determined with a Four-parameter logistic dose response equation. The endpoint value (IC50) for the reference peptide/compound was evaluated in each experiment as a quality control measure. If the endpoint value is within 3-fold of the expected value then the experiment is deemed acceptable. […]

The target of test [2] is Protein arginine deiminase 4 (PAD4) (Homo sapiens, UniProt Q9UM07). The test is described as follows: PAD4 ammonia release assay. The class given is biochemical. In a few lines: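 PAD4 (20 nM, 2× working solution) was preincubated with compound for 15 min at RT in 100 mM HEPES pH 8.0, 2 mM CaCl2, 50 mM NaCl, 0.1 mM TCEP, BSA at 1.25% DMSO. BAEE (600 μM, 2× mix) reacted 60 min, then OPA/DTT/EDTA detection for 120 min. IC50 came from a 4-parameter fit, normalized to 50 μM reference (100%) and DMSO (0%).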

[3] abbreviates: HL-60, 3 h, stimulation with 25 μM A23187 for 3 h.
Setting [4] is: PAD4 ammonia release assay, BAEE substrate, 60 min at RT, read-out: Average IC50 Abs.

pIC50: −log10 of the molar value. Where two headings read alike, the source gives them in different places. Bounds are passed on as bounds.

Sequence of Protein arginine deiminase 4 (PAD4) (Q9UM07 whole entry): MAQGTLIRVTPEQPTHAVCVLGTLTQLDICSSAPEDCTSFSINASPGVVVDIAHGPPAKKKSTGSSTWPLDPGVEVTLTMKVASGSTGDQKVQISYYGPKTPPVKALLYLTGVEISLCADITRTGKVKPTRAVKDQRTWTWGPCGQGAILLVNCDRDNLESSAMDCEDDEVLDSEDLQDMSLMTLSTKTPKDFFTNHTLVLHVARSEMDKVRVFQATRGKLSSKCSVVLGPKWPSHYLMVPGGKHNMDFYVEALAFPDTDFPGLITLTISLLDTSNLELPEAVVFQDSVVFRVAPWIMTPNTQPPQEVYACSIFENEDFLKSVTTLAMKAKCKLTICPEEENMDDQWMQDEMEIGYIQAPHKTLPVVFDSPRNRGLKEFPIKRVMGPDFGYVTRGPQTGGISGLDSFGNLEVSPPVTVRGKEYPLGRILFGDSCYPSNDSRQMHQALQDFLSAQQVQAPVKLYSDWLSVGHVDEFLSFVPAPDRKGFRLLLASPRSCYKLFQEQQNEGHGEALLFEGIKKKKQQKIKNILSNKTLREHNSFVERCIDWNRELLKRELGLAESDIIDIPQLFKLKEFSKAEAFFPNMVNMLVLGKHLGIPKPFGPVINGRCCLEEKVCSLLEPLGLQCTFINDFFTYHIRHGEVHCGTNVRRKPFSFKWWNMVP

The pIC50 is −log10 of the IC50, conventionally taken in molar units. Consider `CCn1cc(Cn2c(-c3cc4cccc5c4n3CCN5CCCO)nc3cc(C(=O)N4C[C@H]5CC[C@@H]4[C@@H]5N)cc(F)c32)cn1` [Example 42, ((1R,4R,7R)-7-amino-2-azabicyclo[2.2.1]heptan-2-yl)(1-((1-ethyl-1H-pyrazol-4-yl)methyl)-7-fluoro-2-(1-(3-hydroxypropyl)-2,3-dihydro-1H-pyrrolo[1,2,3-de]quinoxalin-5-yl)-1H-benzo[d]imidazol-5-yl)methanone], for which the values for the pIC50 in test [1] (setting [3]) and in test [2] (setting [4]) were 5.30 to 6.30 and 6.30 to 7.00, respectively. For `COc1cc(C(=O)N2CCC[C@@H](N)C2)cc2nc(-c3cc4cccc5c4n3CCN5CCO)n(C)c12` [Example 10, (R)-(3-aminopiperidin-1-yl)(2-(1-(2-hydroxyethyl)-2,3-dihydro-1H-pyrrolo[1,2,3-de]quinoxalin-5-yl)-7-methoxy-1-methyl-1H-benzo[d]imidazol-5-yl)methanone], the pIC50 in test [1] (HL-60, stimulation with 25 μM A23187 for 3 h) was 5.30 to 6.30; in test [2] (setting [4]) it was 5.30 to 6.30. With `CC(C)C1CN(C)c2cccc3cc(-c4nc5cc(C(=O)N6C[C@H]7CC[C@@H]6[C@@H]7N)cc(F)c5n4C)n1c23` (stereo partly drawn) [Example 107, ((1R,4R,7R)-7-amino-2-azabicyclo[2.2.1]heptan-2-yl)(7-fluoro-2-(3-isopropyl-1-methyl-2,3-dihydro-1H-pyrrolo[1,2,3-de]quinoxalin-5-yl)-1-methyl-1H-benzo[d]imidazol-5-yl)methanone], the pIC50 in test [1] (setting [3]) and in test [2] (setting [4]) was 6.30 to 7.00 each time.

On to `CCC1CNc2cccc3cc(-c4nn5cc(C(=O)N6C[C@H]7CC[C@@H]6[C@@H]7N)cc(F)c5c4C)n1c23` (stereo partly drawn) [Example 140, [(1R,4R,7R)-7-amino-2-azabicyclo[2.2.1]heptan-2-yl]-[2-(11-ethyl-1,9-diazatricyclo[6.3.1.0^4,12]dodeca-2,4,6,8(12)-tetraen-2-yl)-4-fluoro-3-methyl-pyrazolo[1,5-a]pyridin-6-yl]methanone], for which the pIC50 is 5.30 to 6.30 in test [1] (setting [3]) and 6.30 to 7.00 in test [2] (setting [4]). In the same order, the values of `CCn1cc(Cn2c(-c3cc4cccc5c4n3CCN5CC(F)(F)F)nc3cc(C(=O)N4C[C@H](N)C[C@@H](F)C4)cc(F)c32)cn1` [Example 47, ((3R,5R)-3-amino-5-fluoropiperidin-1-yl)(1-((1-ethyl-1H-pyrazol-4-yl)methyl)-7-fluoro-2-(1-(2,2,2-trifluoroethyl)-2,3-dihydro-1H-pyrrolo[1,2,3-de]quinoxalin-5-yl)-1H-benzo[d]imidazol-5-yl)methanone] are 5.30 to 6.30 and 6.30 to 7.00. As to `CC(C)C1CNc2cccc3cc(-c4nc5cc(C(=O)N6C[C@H]7CC[C@@H]6[C@@H]7N)cc(F)c5n4C)n1c23` (stereo partly drawn) [Example 104, ((1R,4R,7R)-7-amino-2-azabicyclo[2.2.1]heptan-2-yl)(7-fluoro-2-(3-isopropyl-2,3-dihydro-1H-pyrrolo[1,2,3-de]quinoxalin-5-yl)-1-methyl-1H-benzo[d]imidazol-5-yl)methanone], the pIC50 in test [1] (setting [3]) was no less than 7.00; in test [2] (PAD4 activity comparison, read-out: PAD4 Ammonia assay IC50), 6.89; in test [2] (setting [4]), 6.30 to 7.00. `C#CCn1c(-c2cc3cccc4c3n2CCN4CCCO)nc2cc(C(=O)N3C[C@H](N)C[C@@H](F)C3)cc(OC)c21` [Example 49, ((3R,5R)-3-amino-5-fluoropiperidin-1-yl)(2-(1-(3-hydroxypropyl)-2,3-dihydro-1H-pyrrolo[1,2,3-de]quinoxalin-5-yl)-7-methoxy-1-(prop-2-yn-1-yl)-1H-benzo[d]imidazol-5-yl)methanone]: the pIC50 in test [1] (setting [3]) was 5.30 to 6.30; in test [2] (setting [4]) it was 6.30 to 7.00. In the case of `CCC1CN(CCC(N)=O)c2cccc3cc(-c4nc5cc(C(=O)N6C[C@H](N)C[C@@H](F)C6)cc(OC)c5n4C)n1c23` (stereo partly drawn) [Example 94, 3-(5-(5-((3R,5R)-3-amino-5-fluoropiperidine-1-carbonyl)-7-methoxy-1-methyl-1H-benzo[d]imidazol-2-yl)-3-ethyl-2,3-dihydro-1H-pyrrolo[1,2,3-de]quinoxalin-1-yl)propanamide], the pIC50 in test [1] (setting [3]) was 6.30 to 7.00; in test [2] (setting [4]) it was no less than 7.00. Take `CC[C@H]1CN(CCCO)c2cccc3cc(-c4nc5cc(C(=O)N6C[C@H]7CC[C@@H]6[C@@H]7N)cc(F)c5n4C)n1c23` [Example 71, ((1R,4R,7R)-7-amino-2-azabicyclo[2.2.1]heptan-2-yl)(2-((S)-3-ethyl-1-(3-hydroxypropyl)-2,3-dihydro-1H-pyrrolo[1,2,3-de]quinoxalin-5-yl)-7-fluoro-1-methyl-1H-benzo[d]imidazol-5-yl)methanone]: the pIC50 in test [1] (setting [3]) and in test [2] (setting [4]) was no less than 7.00 throughout. The “relative potency of separated isomers in the PAD4 biochemical assay” value in test [2] (SFC-separated stereoisomer pairs) is recorded as “more potent”. `COc1cc(C(=O)N2C[C@H](N)C[C@@H](F)C2)cc2nc(-c3cc4cccc5c4n3CCN5CCCO)n(CC3CCC3)c12` [Example 48, ((3R,5R)-3-amino-5-fluoropiperidin-1-yl)(1-(cyclobutylmethyl)-2-(1-(3-hydroxypropyl)-2,3-dihydro-1H-pyrrolo[1,2,3-de]quinoxalin-5-yl)-7-methoxy-1H-benzo[d]imidazol-5-yl)methanone]: the pIC50 in test [1] (setting [3]) and in test [2] (setting [4]) was 6.30 to 7.00 in each case. In the case of `C#CCn1c(-c2cc3cccc4c3n2C(CC)CN4CCCO)nc2cc(C(=O)N3C[C@H]4CC[C@@H]3[C@@H]4N)cc(OC)c21` (stereo partly drawn) [Example 90, ((1R,4R,7R)-7-amino-2-azabicyclo[2.2.1]heptan-2-yl)(2-(3-ethyl-1-(3-hydroxypropyl)-2,3-dihydro-1H-pyrrolo[1,2,3-de]quinoxalin-5-yl)-7-methoxy-1-(prop-2-yn-1-yl)-1H-benzo[d]imidazol-5-yl)methanone], in test [2] (setting [4]), the pIC50 is 6.30 to 7.00. For `COc1cc(C(=O)N2CC3CNC3C2)cc2nc(-c3cc4cccc5c4n3CCN5CCCO)n(CC3CC3)c12` (centres unmarked) [Example 53, (3,6-diazabicyclo[3.2.0]heptan-3-yl)(1-(cyclopropylmethyl)-2-(1-(3-hydroxypropyl)-2,3-dihydro-1H-pyrrolo[1,2,3-de]quinoxalin-5-yl)-7-methoxy-1H-benzo[d]imidazol-5-yl)methanone], the pIC50 in test [2] (setting [4]) is less than 5.30.

For `COc1cc(C(=O)N2CCC[C@@H](N)C2)cc2nc(-c3cc4cccc5c4n3CC(=O)N5)n(C)c12` [Example 9, (R)-5-(5-(3-aminopiperidine-1-carbonyl)-7-methoxy-1-methyl-1H-benzo[d]imidazol-2-yl)-1H-pyrrolo[1,2,3-de]quinoxalin-2(3H)-one], the pIC50 in test [2] (setting [4]) was less than 5.30. For the compound `COc1cc(C(=O)N2C[C@H](N)C[C@@H](F)C2)cc2nc(-c3cc4cccc5c4n3CCN5CCOCCO)n(C)c12` [Example 22, ((3R,5R)-3-amino-5-fluoropiperidin-1-yl)(2-(1-(2-(2-hydroxyethoxy)ethyl)-2,3-dihydro-1H-pyrrolo[1,2,3-de]quinoxalin-5-yl)-7-methoxy-1-methyl-1H-benzo[d]imidazol-5-yl)methanone], in test [2] (setting [4]), the pIC50 is 6.30 to 7.00.
